Test results published in the supplement of paper PMC10307832.

Experiments:
Assay in all cases: relative viability (nuclei count vs DMSO), 5 days (fraction); higher = more cells survive
[1] = compound: N#CC1(c2ccc(NC(=O)c3cccnc3NCc3ccncc3)cc2)CCCC1 [Apatinib] + CC(=O)c1c(C)c2cnc(Nc3ccc(N4CCNCC4)cn3)nc2n(C2CCCC2)c1=O [Palbociclib] (partner 0.5 µM)
How it was run: (§1)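 Five library-drug doses in √10 steps were combined with a fixed anchor-drug dose, or a single drug was given alone, by pin tool to lung cancer cell lines in 1536-well plates the day after seeding. Nuclei were stained and counted after 5 days. Relative viability is the nuclei count in treated wells over that in vehicle wells, taken as the median of duplicate plates.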

[2] = compound: N#CC1(c2ccc(NC(=O)c3cccnc3NCc3ccncc3)cc2)CCCC1 [Apatinib] + Cc1cc(Nc2cc(N3CCN(C)CC3)nc(Sc3ccc(NC(=O)C4CC4)cc3)n2)n[nH]1 [Tozasertib] (partner 0.1 µM)
How it was run: as §1

[3] = compound: N#CC1(c2ccc(NC(=O)c3cccnc3NCc3ccncc3)cc2)CCCC1 [Apatinib] + N=C(N)NC(=N)NCCc1ccccc1 [Phenformin] (partner 250 µM)
How it was run: as §1

[4] = compound: N#CC1(c2ccc(NC(=O)c3cccnc3NCc3ccncc3)cc2)CCCC1 [Apatinib] + Cc1nc(NC(=O)N2CCC[C@H]2C(N)=O)sc1-c1ccnc(C(C)(C)C(F)(F)F)c1 [Alpelisib] (partner 2 µM)
How it was run: as §1

| Cell Line | relative viability ([1]; first compound 0.08 µM) | relative viability ([1]; first compound 0.253 µM) | relative viability ([1]; first compound 0.8 µM) | relative viability ([1]; first compound 2.53 µM) | relative viability ([1]; first compound 8 µM) | relative viability ([2]; first compound 0.08 µM) | relative viability ([2]; first compound 0.253 µM) | relative viability ([2]; first compound 0.8 µM) | relative viability ([2]; first compound 2.53 µM) | relative viability ([2]; first compound 8 µM) | relative viability ([3]; first compound 0.08 µM) | relative viability ([3]; first compound 0.253 µM) | relative viability ([3]; first compound 0.8 µM) | relative viability ([3]; first compound 2.53 µM) | relative viability ([3]; first compound 8 µM) | relative viability ([4]; first compound 0.08 µM) | relative viability ([4]; first compound 0.253 µM) | relative viability ([4]; first compound 0.8 µM) | relative viability ([4]; first compound 2.53 µM) | relative viability ([4]; first compound 8 µM) |
| --- | --- | --- | --- | --- | --- | --- | --- | --- | --- | --- | --- | --- | --- | --- | --- | --- | --- | --- | --- | --- |
| 201T | 0.366 | 0.362 | 0.354 | 0.381 | 0.292 | 0.96 | 0.878 | 0.897 | 0.808 | 0.615 | 0.481 | 0.448 | 0.413 | 0.33 | 0.405 | 1.01 | 1.08 | 1.03 | 1.09 | 1.05 |
| A549 |  |  |  |  |  |  |  |  |  |  | 0.181 | 0.219 | 0.144 | 0.125 | 0.0802 | 0.784 | 0.844 | 0.919 | 0.78 | 0.65 |
| A-427 | 0.52 | 0.534 | 0.507 | 0.518 | 0.453 | 0.178 | 0.241 | 0.175 | 0.188 | 0.147 | 0.393 | 0.387 | 0.254 | 0.3 | 0.234 | 1.14 | 1.02 | 1.19 | 1.02 | 1 |
| ABC-1 |  | 1.02 | 0.663 | 0.531 | 0.583 |  | 0.177 | 0.165 | 0.178 | 0.191 |  | 0.264 | 0.234 | 0.217 | 0.249 |  | 1.2 | 1.1 | 1.01 | 1.1 |
| BEN | 0.521 | 0.453 | 0.466 | 0.478 | 0.407 | 0.551 | 0.601 | 0.492 | 0.452 | 0.42 | 0.26 | 0.255 | 0.25 | 0.232 | 0.25 | 1.04 | 0.92 | 0.983 | 0.862 | 0.727 |
| CAL-12T | 0.448 | 0.56 | 0.465 | 0.485 | 0.367 | 0.298 | 0.34 | 0.241 | 0.198 | 0.191 | 0.636 | 0.638 | 0.565 | 0.542 | 0.467 | 1.11 | 1.13 | 1.22 | 1.04 | 1.04 |
| COR-L23 | 0.321 | 0.341 | 0.278 | 0.273 | 0.271 | 0.263 | 0.165 | 0.149 | 0.143 | 0.129 | 0.5 | 0.421 | 0.427 | 0.395 | 0.438 | 0.966 | 0.743 | 0.772 | 0.774 | 0.652 |
| COR-L 105 | 0.428 | 0.397 | 0.365 | 0.365 | 0.42 | 0.387 | 0.313 | 0.355 | 0.351 | 0.304 | 0.523 | 0.598 | 0.426 | 0.45 | 0.337 | 1.01 | 1.23 | 0.82 | 0.921 | 0.731 |
| Calu-6 |  |  |  |  |  |  |  |  |  |  |  |  |  |  |  | 1.02 | 1.12 | 0.956 | 0.895 | 0.73 |
| ChaGo-K-1 | 0.993 | 1.04 | 0.908 | 0.9 | 0.772 | 0.194 | 0.227 | 0.193 | 0.208 | 0.178 | 0.473 | 0.528 | 0.425 | 0.424 | 0.428 |  |  |  |  |  |
